Marks after values point to notes of the source that are not given here.

The subject of one test is Non-obese diabetic mouse. The test is described as follows: non-obese diabetic mouse model. Type of test: in vivo. As to conditions: Table 1, 7-10 mice per group, PBS 50%. From the text:
(§1) Experiments were done to test the effect of valproic acid (VPA) on autoimmune disease models. Three models were used: a collagen induced arthritis (CIA) model; a non-obese diabetic mouse model; and an experimental autoimmune encephalomyelitis model. Collagen used in the CIA model was collagen from chicken sternal cartilage powder, Type II, from Sigma Cat#C9301. The peptide that was used in EAE experiments was Mouse MOG38-50 peptide ([…]-SEQ ID NO:1), which was synthesized using>F-moc solid phase methods and purified through HPLC by Invitrogen Life Technologies. For each model tested 7-10 mice were used per group. Results obtained with VPA were compared to those using the negative control phosphate buffered saline.

The subject of another test is autoimmune models. The test is described as follows: several autoimmune models (NOD, EAE, CIA). Format: in vivo. To be noted: MOG-induced EAE and CIA mouse models. From the text:
Studies of the rational inactivation of HDACs have been initiated with the intent of modifying FOXP3 acetylation. […] This treatment leads to increased FoxP3^+ suppressor cell levels and function. The models studied include the Nonobese Diabetic Mice (NOD) model, the myelin oligodendrocyte glycoprotein-induced experimental autoimmune encephalomyelitis (EAE) model, and the collagen-induced arthritis (CIA) mouse model.

Test [1] concerns Experimental Autoimmune Encephalomyelitis. The test can be described thus: experimental autoimmune encephalomyelitis model (MOG38-50 peptide). Type of test: in vivo. As to conditions: Table 1, 7-10 mice per group, PBS 100%.
Excerpt: as §1

The next test deals with FOXP3+CD25+ cells. The test is described as follows: flow cytometry of splenocytes from collagen induced arthritic mice for CD4, CD25 and FOXP3. Type of test: in vivo. The protocol:
Splenocytes from collagen induced arthritic mice treated with VPA (no disease evident) or PBS (disease evident) were stained for cell-surface CD25 and intracellular FOXP3. The CD25+FOXP3+cell subpopulation was gated, and FOXP3 level was analyzed.
(§2) HDAC inhibitor treatment in collagen induced arthritis: HDAC inhibitor VPA was tested in the collagen induced arthritis (CIA) disease model of rheumatoid arthritis. CD4+ T cells as well as B cells are responsible for disease manifestation within the joints and CD25+ Treg play a protective role in disease development. After disease induction with type II collagen, mice were administered VPA (400 mg/kg) or PBS ip daily for 5 weeks. They were scored for severity of disease twice per week. […] Splenocytes from collagen induced arthritic mice that were treated with VPA (no disease evident) or PBS (disease evident) were analyzed for expression of CD4, CD25 and FOXP3 by flow cytometry. […] Additionally, the intracellular levels of FOXP3 protein were elevated in the VPA treated mice compared to PBS mice (FIG. 10). […] In proposed studies VPA treated CD25+ cells will be compared to PBS treated CD25+ cells for increased functional regulatory activity in vitro. HDAC inhibitor VPA is able to modify disease progression in the CIA model of rheumatoid arthritis.
On the technique in general: Flow cytometry measures light scatter and fluorescence of single cells or particles in a stream.

In test [2] the test system is collagen induced arthritis (CIA). The test is described as follows: collagen induced arthritis (CIA) disease model of rheumatoid arthritis. Format: in vivo, mice. The protocol: as §2, §1

Consider `CCCC(CCC)C(=O)O` [VPA, valproic acid], for which the “Incidence of Disease” value in the test on Non-obese diabetic mouse was determined as 20%; in test [1], 57%*; in test [2] (Collagen Induced Arthritis, Table 1, 7-10 mice per group, PBS 100%), 29%. Also, the “FoxP3+ suppressor cell levels and function” value in the test with autoimmune models is given as “increased”. In the test with autoimmune models, the “clinical effects in autoimmune models” value is reported as “significant clinical effects”. Further, the “intracellular levels of FOXP3 protein compared to PBS mice” value with FOXP3+CD25+ cells (CD25+FOXP3+ gated splenocytes from CIA mice (FIG. 10)) is “elevated”. In addition, in the test with FOXP3+CD25+ cells (splenocytes from CIA mice, flow cytometry), the “increase in the percentage of FOXP3+CD25+ cells, VPA treated versus PBS treated splenocytes” value is on record as 1.63 fold. Moreover, the “mice showing any disease at the end of the 5 week study” value in test [2] (VPA 400 mg/kg ip daily for 5 weeks after induction with type II collagen, PBS group 100%) came out at 25%. Moreover, the “disease severity compared to PBS treated” value in test [2] (VPA 400 mg/kg ip daily for 5 weeks, scored twice per week) was “greatly reduced”.
With `CC(/C=C/C(=O)NO)=C\[C@@H](C)C(=O)c1ccc(N(C)C)cc1` [TSA, Trichostatin A], in the test with autoimmune models, the “FoxP3+ suppressor cell levels and function” value is on record as “increased”; the “clinical effects in autoimmune models” value was “significant clinical effects”.
